Literature values as cited in US7981441B2, “Drug delivery systems using mesoporous oxide films” (The Board of Trustees of the Leland Stanford Junior …, priority 2004, dated 2011).

What was measured:
[1] = 4 to six acrylate sleeves each loaded with 800 micrograms
[2] = tested on: porcine neointimal hyperplasia; conditions: bare stent, dip-coating; 0, 0.2, 15 and 187 μg/stent; at 4 weeks
[3] = tested on: rabbit neointimal hyperplasia; conditions: pLA/pCL copolymer-coated stents containing 200 μg of paclitaxel; months after stent implantation

In the case of `CCCCCC(=O)O[C@H]1C[C@H]2OC[C@@]2(OC(C)=O)[C@H]2[C@H](OC(=O)c3ccccc3)[C@]3(O)C[C@H](OC(=O)[C@H](O)[C@@H](NC(=O)c4ccccc4)c4ccccc4)C(C)=C([C@@H](OC(C)=O)C(=O)[C@]12C)C3(C)C` [7-hexanoyltaxol], the “clinical outcome of study” value [1] is given as “clinically unpromising”.
In the case of `CC(=O)O[C@H]1C(=O)[C@@]2(C)[C@H]([C@H](OC(=O)c3ccccc3)[C@]3(O)C[C@H](OC(=O)[C@H](O)[C@@H](NC(=O)c4ccccc4)c4ccccc4)C(C)=C1C3(C)C)[C@]1(OC(C)=O)CO[C@@H]1C[C@@H]2O` [paclitaxel], the “effect on porcine neointimal hyperplasia” value [2] is listed as “significant dose-dependent inhibition” and the “effect on rabbit neointimal hyperplasia” value [3] is listed as “virtually abolished”.
